Laboratory results as given in the CheMixHub viscosity set.

Experiment: xn = mol fraction of the nth substance listed

CC(C)(C)O + CC(C)=O
viscosity [mPa·s], 101 kPa
Details	x1 = 0.0784	x1 = 0.1618	x1 = 0.2497	x1 = 0.3433	x1 = 0.4398	x1 = 0.5382	x1 = 0.6472	x1 = 0.7532	x1 = 0.8729
298.15 K	0.3321	0.3734	0.4146	0.4676	0.5414	0.6566	0.8929	1.304	2.131
303.15 K	0.324	0.3649	0.4058	0.4555	0.514	0.6108	0.8102	1.186	1.881
308.15 K	0.3158	0.3535	0.3941	0.4405	0.4928	0.583	0.7695	1.073	1.632

CCC(O)CO (stereo not drawn) + CN1CCCC1=O
Details	viscosity [mPa·s]
298.15 K, 101.33 kPa, x2 = 0.0654	38.07
298.15 K, 101.33 kPa, x2 = 0.1029	31.55
298.15 K, 101.33 kPa, x2 = 0.2083	19.25
298.15 K, 101.33 kPa, x2 = 0.3075	12.65
298.15 K, 101.33 kPa, x2 = 0.3987	8.95
298.15 K, 101.33 kPa, x2 = 0.4992	6.384
298.15 K, 101.33 kPa, x2 = 0.5997	4.714
298.15 K, 101.33 kPa, x2 = 0.6958	3.61
298.15 K, 101.33 kPa, x2 = 0.8118	2.663
298.15 K, 101.33 kPa, x2 = 0.9111	2.083
298.15 K, 101.33 kPa, x2 = 0.9632	1.837
308.15 K, 101 kPa, x1 = 0.0282	1.835
308.15 K, 101 kPa, x1 = 0.0564	2.019
308.15 K, 101 kPa, x1 = 0.1026	2.039
308.15 K, 101 kPa, x1 = 0.1884	2.067
308.15 K, 101 kPa, x1 = 0.3027	3.253
308.15 K, 101 kPa, x1 = 0.4056	3.955
308.15 K, 101 kPa, x1 = 0.4941	4.933
308.15 K, 101 kPa, x1 = 0.6024	6.647
308.15 K, 101 kPa, x1 = 0.6843	8.612
308.15 K, 101 kPa, x1 = 0.7939	12.61
308.15 K, 101 kPa, x1 = 0.888	17.95
308.15 K, 101 kPa, x1 = 0.9396	22.95
308.15 K, 101 kPa, x1 = 0.9764	27.1
308.15 K, 101.33 kPa, x2 = 0.05493	22.04
308.15 K, 101.33 kPa, x2 = 0.1102	17.39
308.15 K, 101.33 kPa, x2 = 0.1762	13.32
308.15 K, 101.33 kPa, x2 = 0.2999	8.57
308.15 K, 101.33 kPa, x2 = 0.3972	6.231
308.15 K, 101.33 kPa, x2 = 0.4977	4.671
308.15 K, 101.33 kPa, x2 = 0.6026	3.551
308.15 K, 101.33 kPa, x2 = 0.6974	2.829
308.15 K, 101.33 kPa, x2 = 0.8019	2.225
308.15 K, 101.33 kPa, x2 = 0.9106	1.745
308.15 K, 101.33 kPa, x2 = 0.9521	1.595
318.15 K, 101.33 kPa, x2 = 0.05598	13.51
318.15 K, 101.33 kPa, x2 = 0.1062	11.16
318.15 K, 101.33 kPa, x2 = 0.2044	7.948
318.15 K, 101.33 kPa, x2 = 0.2997	5.996
318.15 K, 101.33 kPa, x2 = 0.4011	4.469
318.15 K, 101.33 kPa, x2 = 0.4992	3.505
318.15 K, 101.33 kPa, x2 = 0.6003	2.789
318.15 K, 101.33 kPa, x2 = 0.702	2.252
318.15 K, 101.33 kPa, x2 = 0.8041	1.83
318.15 K, 101.33 kPa, x2 = 0.9081	1.49
318.15 K, 101.33 kPa, x2 = 0.951	1.373

COCCOCCOCCOC + ClCCl
298.15 K, 101 kPa
Details	viscosity [mPa·s]
x1 = 0.0122	0.436
x1 = 0.0214	0.451
x1 = 0.043	0.496
x1 = 0.0736	0.575
x1 = 0.1008	0.621
x1 = 0.159	0.752
x1 = 0.2062	0.868
x1 = 0.2482	0.96
x1 = 0.3121	1.078
x1 = 0.3987	1.247
x1 = 0.4705	1.371
x1 = 0.5389	1.476
x1 = 0.5879	1.549
x1 = 0.6389	1.645
x1 = 0.6782	1.669
x1 = 0.7651	1.787
x1 = 0.803	1.823
x1 = 0.8785	1.897
x1 = 0.9474	1.92

Nc1ccccc1 + CCCCCCCCCO
viscosity [mPa·s], 100 kPa
Details	x1 = 0.0851	x1 = 0.1597	x1 = 0.2339	x1 = 0.3537	x1 = 0.4468	x1 = 0.5616	x1 = 0.6482	x1 = 0.7383	x1 = 0.8486	x1 = 0.9448
293.15 K	9.99	8.96	8.14	6.97	6.19	5.33	4.9	4.53	4.24	4.2
303.15 K	6.9	6.21	5.58	4.87	4.36	3.79	3.46	3.24	3.06	3.04
313.15 K	4.94	4.47	4.08	3.58	3.25	2.85	2.64	2.48	2.38	2.38
323.15 K	3.67	3.35	3.06	2.71	2.47	2.19	2.05	1.94	1.87	1.88

CC(C)(C)O + COC(C)(C)C
101.33 kPa
Details	viscosity [mPa·s]
303.15 K, x2 = 0.0443	2.726
303.15 K, x2 = 0.0877	2.236
303.15 K, x2 = 0.1262	1.894
303.15 K, x2 = 0.1702	1.587
303.15 K, x2 = 0.2519	1.192
303.15 K, x2 = 0.2645	1.146
303.15 K, x2 = 0.3232	0.9699
303.15 K, x2 = 0.3619	0.8794
303.15 K, x2 = 0.4504	0.7203
303.15 K, x2 = 0.5434	0.5955
303.15 K, x2 = 0.5686	0.5668
303.15 K, x2 = 0.6631	0.4759
303.15 K, x2 = 0.7872	0.3997
303.15 K, x2 = 0.8887	0.3669
303.15 K, x2 = 0.9442	0.3487
313.15 K, x2 = 0.048	1.742
313.15 K, x2 = 0.0499	1.73
313.15 K, x2 = 0.0796	1.556
313.15 K, x2 = 0.092	1.491
313.15 K, x2 = 0.1717	1.149
313.15 K, x2 = 0.2531	0.9105
313.15 K, x2 = 0.267	0.878
313.15 K, x2 = 0.3697	0.6901
313.15 K, x2 = 0.4552	0.5827
313.15 K, x2 = 0.5678	0.4803
313.15 K, x2 = 0.6723	0.4109
313.15 K, x2 = 0.7688	0.3634
313.15 K, x2 = 0.8802	0.3241
313.15 K, x2 = 0.9456	0.305

COCCOCCOCCOC + CCCCCCCO
101 kPa
Details	viscosity [mPa·s]
293.15 K, x1 = 0.05281	5.682
293.15 K, x1 = 0.09018	5.069
293.15 K, x1 = 0.2084	3.662
293.15 K, x1 = 0.2924	3.185
293.15 K, x1 = 0.4036	2.821
293.15 K, x1 = 0.5165	2.541
293.15 K, x1 = 0.5861	2.393
293.15 K, x1 = 0.6984	2.25
293.15 K, x1 = 0.8022	2.21
293.15 K, x1 = 0.8977	2.195
293.15 K, x1 = 0.9591	2.185
303.15 K, x1 = 0.05495	4.164
303.15 K, x1 = 0.08973	3.734
303.15 K, x1 = 0.2069	2.83
303.15 K, x1 = 0.2951	2.469
303.15 K, x1 = 0.403	2.197
303.15 K, x1 = 0.504	2.013
303.15 K, x1 = 0.5851	1.916
303.15 K, x1 = 0.705	1.813
303.15 K, x1 = 0.7893	1.785
303.15 K, x1 = 0.9012	1.776
303.15 K, x1 = 0.9516	1.777
313.15 K, x1 = 0.0542	3.158
313.15 K, x1 = 0.09194	2.876
313.15 K, x1 = 0.2077	2.266
313.15 K, x1 = 0.2951	2
313.15 K, x1 = 0.4053	1.782
313.15 K, x1 = 0.5078	1.654
313.15 K, x1 = 0.59	1.579
313.15 K, x1 = 0.7035	1.515
313.15 K, x1 = 0.795	1.483
313.15 K, x1 = 0.9054	1.474
313.15 K, x1 = 0.9487	1.471

COCCOCCOCCO + CCOC(=O)OCC
298.15 K, 101.33 kPa
Details	viscosity [mPa·s]
x1 = 0.0084	0.762
x1 = 0.017	0.775
x1 = 0.0385	0.809
x1 = 0.0758	0.874
x1 = 0.0923	0.905
x1 = 0.1232	0.967
x1 = 0.1538	1.035
x1 = 0.1917	1.126
x1 = 0.2331	1.242
x1 = 0.2893	1.408
x1 = 0.326	1.528
x1 = 0.3668	1.676
x1 = 0.41	1.845
x1 = 0.4336	1.944
x1 = 0.4506	2.027
x1 = 0.4939	2.224
x1 = 0.5117	2.316
x1 = 0.5615	2.578
x1 = 0.603	2.819
x1 = 0.676	3.303
x1 = 0.7411	3.785
x1 = 0.8077	4.364
x1 = 0.8846	5.15
x1 = 0.925	5.608
